Results reported in patent US20250333397A1 (REMIX THERAPEUTICS INC., priority 2021, published 2025).
Like-named read-outs stand apart in the source and are kept apart here.

How the values were obtained:
Type in all cases: cell-based, human
MYB mRNA = assay: RT-qPCR splicing assay, MYB canonical (CJ) and alternative (AJ) junction mRNA; settings: Homo sapiens; for AC50: read-out: MYB AJ (AC50, increase in AJ mRNA)
Procedure, shortened: (§1)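 24 h compound exposure of A673 or K562 cells at 37 °C, 10 uM top final concentration, 3-fold steps, DMSO ≤0.25%. Splice-isoform levels determined by qPCR on cDNA from lysates, run at least in duplicate; values expressed as RQ normalized to GAPDH, GUSB or PPIA and DMSO.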

HTT mRNA = assay: RT-qPCR splicing assay, HTT canonical (CJ) and alternative (AJ) junction mRNA; settings: Homo sapiens; for AC50: read-out: HTT AJ (AC50, increase in AJ mRNA)
Procedure, shortened: as §1

Target C mRNA = assay: RT-qPCR splicing assay panel, Target C canonical junction (CJ) mRNA; settings: Homo sapiens
Procedure, shortened: as §1

SMN2 mRNA = assay: RT-qPCR splicing assay panel, SMN2 canonical junction (CJ) mRNA; settings: Homo sapiens
Procedure, shortened: as §1

[1] = 24 h, Table 3A, A673 or K562 cells, 24 h treatment
[2] = 24 h, Table 3A, A673 or K562 cells, 24 h treatment, read-out: MYB CJ (IC50, decrease in CJ mRNA)
[3] = canonical junction (CJ) mRNA, RT-qPCR panel, Table 4A, read-out: MYB, decrease in CJ mRNA levels, IC50
[4] = 24 h, Table 3A, A673 or K562 cells, 24 h treatment, read-out: HTT CJ (IC50, decrease in CJ mRNA)
[5] = canonical junction (CJ) mRNA, RT-qPCR panel, Table 4A, read-out: HTT, decrease in CJ mRNA levels, IC50
[6] = canonical junction (CJ) mRNA, RT-qPCR panel, Table 4A, read-out: Target C, decrease in CJ mRNA levels, IC50
[7] = canonical junction (CJ) mRNA, RT-qPCR panel, Table 4A, read-out: SMN2, decrease in CJ mRNA levels, IC50
[8] = 24 h, Table 3B, A673 or K562 cells, 24 h treatment
[9] = 24 h, Table 3B, A673 or K562 cells, 24 h treatment, read-out: MYB CJ (IC50, decrease in CJ mRNA)
[10] = Table 4B, gene panel, read-out: MYB (IC50, decrease in CJ mRNA levels)
[11] = 24 h, Table 3B, A673 or K562 cells, 24 h treatment, read-out: HTT CJ (IC50, decrease in CJ mRNA)
[12] = Table 4B, gene panel, read-out: HTT (IC50, decrease in CJ mRNA levels)
[13] = Table 4B, gene panel, read-out: Target C (IC50, decrease in CJ mRNA levels)
[14] = Table 4B, gene panel, read-out: SMN2 (IC50, decrease in CJ mRNA levels)

Structure (SMILES) | AC50 (MYB mRNA; [1]) | IC50 (MYB mRNA; [2]) | IC50 (MYB mRNA; [3]) | AC50 (HTT mRNA; [1]) | IC50 (HTT mRNA; [4]) | IC50 (HTT mRNA; [5]) | IC50 (Target C mRNA; [6]) | IC50 (SMN2 mRNA; [7]) | AC50 (MYB mRNA; [8]) | IC50 (MYB mRNA; [9]) | IC50 (MYB mRNA; [10]) | AC50 (HTT mRNA; [8]) | IC50 (HTT mRNA; [11]) | IC50 (HTT mRNA; [12]) | IC50 (Target C mRNA; [13]) | IC50 (SMN2 mRNA; [14])
Oc1cc(-c2cnn3c2CCC3)c(F)cc1-c1ccc(N2CCC(NC3CCC3)C2)nn1 (stereo not drawn) [Compound 443] | > 10000 nM | > 10000 nM | > 10000 nM | 1000 to 10000 nM | 1000 to 10000 nM | 1000 to 10000 nM | > 10000 nM | 1000 to 10000 nM |  |  |  |  |  |  |  | 
CCN(C1CCC1)[C@@H]1CCN(c2ccc(-c3ccc(-c4cnnc(OC)c4)cc3O)nn2)C1 [Compound 290, 2-{6-[(3R)-3-[cyclobutyl(ethyl)amino]pyrrolidin-1-yl]pyridazin-3-yl}-5-(6-methoxypyridazin-4-yl)phenol] | 100 to 1000 nM | 100 to 1000 nM | 100 to 1000 nM | 100 to 1000 nM | 100 to 1000 nM | 100 to 1000 nM | 100 to 1000 nM | < 100 nM |  |  |  |  |  |  |  | 
Oc1cc(-c2cn[nH]c2)ccc1-c1ccc(N2CC[C@H](NC3CCC3)C2)nn1 [Compound 116, 2-{6-[(3S)-3-(cyclobutylamino)pyrrolidin-1-yl]pyridazin-3-yl}-5-(1H-pyrazol-4-yl)phenol] | 100 to 1000 nM | 100 to 1000 nM | 100 to 1000 nM | < 100 nM | < 100 nM | < 100 nM | < 100 nM | < 100 nM |  |  |  |  |  |  |  | 
CC(C)(C)N[C@H]1CCN(c2ccc(-c3ccc(-c4cn[nH]c4)cc3O)nn2)C1 [Compound 101, 2-{6-[(3S)-3-(tert-butylamino)pyrrolidin-1-yl]pyridazin-3-yl}-5-(1H-pyrazol-4-yl)phenol] | < 100 nM | < 100 nM | < 100 nM | < 100 nM | < 100 nM | < 100 nM | < 100 nM | < 100 nM |  |  |  |  |  |  |  | 
COc1cc(-c2cc(O)c(-c3ccc(N4CC[C@H](NC5(C)CCC5)C4)nn3)cc2F)cnn1 [Compound 299] | 100 to 1000 nM | 100 to 1000 nM | 100 to 1000 nM | < 100 nM | < 100 nM | < 100 nM | 100 to 1000 nM | < 100 nM |  |  |  |  |  |  |  | 
O=c1cc(-c2cc(O)c(-c3ccc(N4CC[C@H](NC5CCC5)C4)nn3)cc2F)cc[nH]1 [Compound 221] | 1000 to 10000 nM | 100 to 1000 nM | 100 to 1000 nM | 100 to 1000 nM | 100 to 1000 nM | 100 to 1000 nM | 1000 to 10000 nM | < 100 nM |  |  |  |  |  |  |  | 
COc1cc(-c2ccc(-c3ccc(N4CC[C@@H](N[C@H]5C[C@@H](F)C5)C4)nn3)c(O)c2)ncn1 [Compound 408, 5-(6-methoxypyrimidin-4-yl)-2-{6-[(3S)-3-{[(1s,3s)-3-fluorocyclobutyl]amino}pyrrolidin-1-yl]pyridazin-3-yl}phenol] | 100 to 1000 nM | 100 to 1000 nM | 100 to 1000 nM | 100 to 1000 nM | < 100 nM | < 100 nM | 100 to 1000 nM | < 100 nM |  |  |  |  |  |  |  | 
COc1cc(-c2cc(O)c(-c3ccc(N4CC[C@](C)(NCC5CC5)C4)nn3)cc2F)cnn1 [Compound 452, 2-{6-[(3S)-3-[(cyclopropylmethyl)amino]-3-methylpyrrolidin-1-yl]pyridazin-3-yl}-4-fluoro-5-(6-methoxypyridazin-4-yl)phenol] |  |  | 100 to 1000 nM |  |  | < 100 nM | 100 to 1000 nM | 100 to 1000 nM |  |  |  |  |  |  |  | 
Cc1nnc(-c2cc(O)c(-c3ccc(N4CC[C@H](NCC5CC5)C4)nn3)cc2F)s1 [Compound 401] | 1000 to 10000 nM | 1000 to 10000 nM | 1000 to 10000 nM | 100 to 1000 nM | 100 to 1000 nM | 100 to 1000 nM | 100 to 1000 nM | 100 to 1000 nM |  |  |  |  |  |  |  | 
COc1cc(-c2cc(O)c(-c3ccc(OC4CC(C)(C)NC(C)(C)C4)nn3)cc2F)cnn1 [Compound 272] | 100 to 1000 nM | 100 to 1000 nM | 100 to 1000 nM | < 100 nM | < 100 nM | < 100 nM | 100 to 1000 nM | < 100 nM |  |  |  |  |  |  |  | 
CN(C1CCN(c2ccc(-c3cc(F)c(-c4cn[nH]c4)cc3O)nn2)C1)C(C)(C)C (stereo in doubt) [Compound 119, 2-{6-[(3S)-3-[tert-butyl(methyl)amino]pyrrolidin-1-yl]pyridazin-3-yl}-4-fluoro-5-(1H-pyrazol-4-yl)phenol] | < 100 nM | < 100 nM | < 100 nM | < 100 nM | < 100 nM | < 100 nM | < 100 nM | < 100 nM |  |  |  |  |  |  |  | 
Cc1nnc(-c2cc(O)c(-c3ccc(N4CC[C@@H](NCC5CC5)C4)nn3)cc2F)s1 [Compound 402] | 1000 to 10000 nM | 1000 to 10000 nM | 1000 to 10000 nM | 100 to 1000 nM | 100 to 1000 nM | 100 to 1000 nM | 1000 to 10000 nM | 100 to 1000 nM |  |  |  |  |  |  |  | 
Cc1nc2cc(O)c(-c3ccc(N4CC[C@H](N(C)C(C)(C)C)C4)nn3)cc2o1 [Compound 858] |  |  |  |  |  |  |  |  | 100 to 1000 nM | 100 to 1000 nM | 100 to 1000 nM | < 100 nM | < 100 nM | < 100 nM | 100 to 1000 nM | < 100 nM
Cc1nc2cc(O)c(-c3cnc(N4CC[C@H](NC(C)(C)C)C4)nn3)cc2o1 [Compound 809] |  |  |  |  |  |  |  |  | 1000 to 10000 nM | 1000 to 10000 nM | 1000 to 10000 nM | 1000 to 10000 nM | < 100 nM | < 100 nM | 1000 to 10000 nM | 100 to 1000 nM
COc1cc(-c2ccc(-c3ccc(N4CC[C@@H](NC(C)(C)C)C4)nn3)c(O)c2)cnn1 [Compound 209, 2-{6-[(3R)-3-(tert-butylamino)pyrrolidin-1-yl]pyridazin-3-yl}-5-(6-methoxypyridazin-4-yl)phenol] | < 100 nM | < 100 nM | < 100 nM | < 100 nM | < 100 nM | < 100 nM | < 100 nM | < 100 nM |  |  |  |  |  |  |  | 
COc1cc(-c2ccc(-c3ccc(N4CC[C@@H](N[C@H]5C[C@H](F)C5)C4)nn3)c(O)c2)ncn1 [Compound 427] | 1000 to 10000 nM | 1000 to 10000 nM | 1000 to 10000 nM | 100 to 1000 nM | 100 to 1000 nM | 100 to 1000 nM | 1000 to 10000 nM | 100 to 1000 nM |  |  |  |  |  |  |  | 
CC1(C)CC(Oc2ncc(-c3cc(F)c(-c4cn[nH]c4)cc3O)nn2)CC(C)(C)N1 [Compound 377] | 1000 to 10000 nM | 1000 to 10000 nM | 1000 to 10000 nM | 100 to 1000 nM | 100 to 1000 nM | 100 to 1000 nM | 100 to 1000 nM | 100 to 1000 nM |  |  |  |  |  |  |  | 
